Data: US20240261242A1, “METHODS OF INTRAVENOUSLY ADMINISTERING SOTALOL” (AltaThera Pharmaceuticals LLC, priority 2018, published 2024)

Experiments:
[1] = cited from earlier work
[2] = example IV sotalol treatment protocols with QTc interval monitoring; assay type: in vivo, human
Procedure: An example sotalol treatment protocol for a patient experiencing AF and who is currently in normal sinus rhythm (which patient could have resumed normal sinus rhythm spontaneously, or by way of chemical cardioversion, or electrocardioversion) is described herein. The patient is admitted to a hospital or other facility capable of providing cardiac resuscitation and continuous electrocardiographic monitoring. The patient's creatinine clearance is determined to be 60-89 mL/min (mild renal impairment). The patient is connected to an electrocardiographic and an initial QTc is determined to be less than 450 ms. If the patient were to be administered multiple sequential oral doses, the physician would have selected an oral sotalol dosing regimen of 80 mg at a 12-hour interval. However, due to the patient's NPO status, the physician determines the patient should instead be administered an IV sotalol dosing regimen as a substitute for the selected oral dosing regimen. IV doses in an amount of 75 mg sotalol hydrochloride are administered to the patient at 12-hour interval as a substitute for oral dosing. It is noted that notwithstanding the patient's mild kidney impairment, no adjustment to the IV dosing amount or interval is made. That is, even though the patient's CrCl is lower than normal, neither the dose is adjusted lower nor the dosing interval increased to accommodate for the mild renal impairment. The 75 mg IV dose is administered to the patient over a period of 5 hours. The patient's QTc interval is measured, along with heart rate and blood pressure at selected times to ensure that the patient is tolerating the drug. […] Once it is determined that the patient/subject is capable of tolerating the sotalol, one or more subsequent doses of sotalol hydrochloride in an amount of 75 mg is administered to the subject at a 12-hour interval. The patient's QTc interval can continue to be monitored.
An example sotalol treatment protocol for a patient experiencing VT who is not currently in normal sinus rhythm is described herein. The patient is admitted to a hospital or other facility capable of providing cardiac resuscitation and continuous electrocardiographic monitoring. The patient's creatinine clearance is determined to be 10-29 mL/min (severe renal impairment). The patient is connected to an electrocardiographic and an initial QTc is determined to be less than 450 ms. If the patient were to be administered multiple sequential oral doses, the physician would have selected an oral sotalol dosing regimen of 120 mg at a 48-hour interval. However, the physician determines the patient should instead be administered an IV sotalol dosing regimen as a substitute for the selected oral dosing regimen. IV doses in an amount of 105 mg sotalol hydrochloride are administered to the patient at 48-hour interval as a substitute for oral dosing. The 105 mg IV dose is administered to the patient over a period of 5 hours. The patient's QTc interval is measured, along with heart rate and blood pressure at selected times to ensure that the patient is tolerating the drug. […] Once it is determined that the patient/subject is capable of tolerating the sotalol, one or more subsequent doses of sotalol hydrochloride in an amount of 105 mg is administered to the subject at a 48-hour interval. The patient's QTc interval can continue to be monitored.
An example sotalol treatment protocol for a patient with atrial flutter (AFL) and persistent atrial fibrillation who is not currently in normal sinus rhythm is described herein. The patient is admitted to a hospital or other facility capable of providing cardiac resuscitation and continuous electrocardiographic monitoring. The patient's creatinine clearance is determined to be ≥90 mL/min. The patient is connected to an electrocardiographic and an initial QTc is determined to be less than 450 ms. […]

[3] = cited from earlier work; remark: listed apart in the source
[4] = Example 2: 75 mg IV over 5 hours at 12-hour interval, CrCl 60-89 mL/min, AF patient in sinus rhythm
[5] = Example 5: 105 mg IV over 5 hours at 48-hour interval, CrCl 10-29 mL/min, VT patient
[6] = Example 6: 150 mg IV over 5 hours at 12-hour interval, CrCl ≥90 mL/min, AFL and persistent AF patient
[7] = Example 7: 112.5 mg IV over 5 hours at 12-hour interval, then escalated to 150 mg, CrCl 60-89 mL/min, PVC patient

In the case of `CC(C)NCC(O)c1ccc(NS(C)(=O)=O)cc1.Cl` (centres unmarked) [sotalol hydrochloride, d,1-N-[4-[1-hydroxy-2-[(1-methylethyl)amino]ethyl]phenyl] methane-sulfonamide monohydrochloride], the “time to steady-state plasma levels and maximum QTc prolongation” value ([1]; oral administration, twice daily (after 5-6 doses)) is listed as 3 days, the bioavailable ([1]; oral, taken on an empty stomach) is listed as about 100% and the QTc interval [2, 4] is listed as at most 500 ms. The ΔQTc [2, 4] was “less than 20%”, the QTc interval [2, 5] was at most 500 ms and the ΔQTc [2, 5] was “less than 20%”. For the same compound, the QTc interval [2, 6] was at most 500 ms, the ΔQTc [2, 6] was “less than 20%” and the QTc interval [2, 7] was at most 500 ms. The ΔQTc [2, 7] was “less than 20%” and the solubility [3] was “soluble in water, propylene glycol, and ethanol”.
